The values below come from PubChem BioAssay (NCI).

Molecules are shown by their SMILES.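 Following 48 hours of exposure in 96-well plates, responses at five concentrations were used to interpolate endpoints linearly. Here, GI50 denotes the concentration required for 50% inhibition of growth. TGI: concentration producing complete growth inhibition.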

Some test systems named below: ACHN renal; EKVX NSCLC; LOX IMVI melanoma; RPMI-8226 leukemia; SF-268 CNS; SK-MEL-28 melanoma; SK-MEL-5 melanoma; UACC-62 melanoma.
Common to all, as to experiment: NCI tumour cell line growth inhibition, 48 h

Regarding `COc1cc2ncn(-c3cc(O[C@@H](C)c4ccccc4Cl)c(C(N)=O)s3)c2cc1OC`, the GI50 in the experiment with ACHN renal is 2.89 µM; with EKVX NSCLC, 6.66 µM; with LOX IMVI melanoma, 1.05 µM; in the experiment with RPMI-8226 leukemia, 1.49 µM; in the experiment on SF-268 CNS it was 1.61 µM; in the experiment with SK-MEL-28 melanoma, 3.84 µM. The results for the GI50 in the experiment with SK-MEL-5 melanoma and in the experiment with UACC-62 melanoma were 0.247 µM and 0.638 µM, respectively. Also, the TGI in the experiment with ACHN renal was above 25 µM; with EKVX NSCLC, above 25 µM; with LOX IMVI melanoma, above 25 µM; with RPMI-8226 leukemia, above 19 µM; with SF-268 CNS, above 25 µM; in the experiment with SK-MEL-28 melanoma, above 25 µM. Besides, the results for the TGI in the experiment with SK-MEL-5 melanoma and in the experiment with UACC-62 melanoma were 5.26 µM and above 25 µM, respectively.

For `C[C@@H](O)[C@H](NC(=O)N[C@@H](CC(N)=O)c1nc([C@@H](N)CO)no1)C(=O)O`, the GI50 with ACHN renal, with EKVX NSCLC, with LOX IMVI melanoma, with RPMI-8226 leukemia, in the experiment on SF-268 CNS and in the experiment on SK-MEL-28 melanoma was above 100 µM in each case. In addition, the GI50 in the experiment with SK-MEL-5 melanoma and with UACC-62 melanoma was above 100 µM in each case. Also, the TGI in the experiment on ACHN renal, in the experiment with EKVX NSCLC, with LOX IMVI melanoma, in the experiment on RPMI-8226 leukemia, in the experiment on SF-268 CNS and with SK-MEL-28 melanoma was above 100 µM each time. Moreover, the TGI in the experiment on SK-MEL-5 melanoma and in the experiment on UACC-62 melanoma was above 100 µM each time.

On to `COc1ccc(/C(COc2ccc3c(=O)c(-c4ccccc4)coc3c2)=N\O)cc1`, for which the GI50 with ACHN renal was 11.3 µM; in the experiment on EKVX NSCLC it was 4.94 µM; in the experiment with LOX IMVI melanoma, 4.73 µM; in the experiment on RPMI-8226 leukemia, 2.29 µM; in the experiment with SF-268 CNS, 6.36 µM; with SK-MEL-28 melanoma, 10.2 µM. Further, the GI50 is 0.394 µM in the experiment on SK-MEL-5 melanoma and 0.662 µM in the experiment on UACC-62 melanoma. Moreover, the TGI in the experiment with ACHN renal was 34 µM; with EKVX NSCLC, 38.7 µM; in the experiment on LOX IMVI melanoma, above 45.9 µM; with RPMI-8226 leukemia it was above 54.2 µM; in the experiment with SF-268 CNS it was above 78.5 µM; with SK-MEL-28 melanoma, above 90.9 µM. Further, the TGI in the experiment on SK-MEL-5 melanoma is 4.74 µM; in the experiment on UACC-62 melanoma, 21.2 µM.

Turning to `O=C1CC(=O)N(C(=O)c2nn(-c3ccc(Cl)cc3)cc2O)N1`, the GI50 is 0.544 µM with ACHN renal; 0.845 µM in the experiment with EKVX NSCLC; 1.15 µM in the experiment with LOX IMVI melanoma; 0.37 µM with RPMI-8226 leukemia; 0.461 µM with SF-268 CNS; 2.82 µM in the experiment on SK-MEL-28 melanoma. Further, the values for the GI50 in the experiment on SK-MEL-5 melanoma and in the experiment on UACC-62 melanoma were 1.69 µM and 0.381 µM, respectively. The TGI in the experiment on ACHN renal was above 100 µM; in the experiment with EKVX NSCLC, above 100 µM; with LOX IMVI melanoma it was above 100 µM; with RPMI-8226 leukemia it was 11.1 µM; with SF-268 CNS it was above 100 µM; in the experiment with SK-MEL-28 melanoma it was above 100 µM. The TGI was 12 µM with SK-MEL-5 melanoma and 9.41 µM in the experiment on UACC-62 melanoma.

`NC[C@H]1Nc2ccccc2[C@@H](O)C1O` (some centres undefined): the TGI in the experiment on ACHN renal, in the experiment on EKVX NSCLC, with LOX IMVI melanoma, in the experiment on RPMI-8226 leukemia, in the experiment with SF-268 CNS and in the experiment with SK-MEL-28 melanoma was above 100 µM each time. For the same compound, the TGI in the experiment on SK-MEL-5 melanoma and in the experiment on UACC-62 melanoma was above 100 µM each time.

Turning to `C[C@]12CC[C@@H]3c4cc(-c5ccc(F)cc5)c(O)cc4CC[C@H]3[C@@H]1CC[C@@H]2O`, the GI50 in the experiment with ACHN renal was 5.86 µM; with EKVX NSCLC, 6.32 µM; in the experiment on LOX IMVI melanoma it was 9.88 µM; with RPMI-8226 leukemia, 2.78 µM; in the experiment with SF-268 CNS, 7.29 µM; in the experiment on SK-MEL-28 melanoma, 14.2 µM. Further, the values for the GI50 in the experiment with SK-MEL-5 melanoma and in the experiment with UACC-62 melanoma were 9.41 µM and 12 µM, respectively. The TGI in the experiment on ACHN renal was found to be 18.9 µM; in the experiment with EKVX NSCLC, 20.3 µM; in the experiment with LOX IMVI melanoma it was 22.1 µM; in the experiment with RPMI-8226 leukemia, 16.5 µM; in the experiment on SF-268 CNS, 27.8 µM; in the experiment on SK-MEL-28 melanoma it was 28 µM. For the same compound, the TGI was determined as 21.2 µM in the experiment with SK-MEL-5 melanoma and 25.2 µM in the experiment with UACC-62 melanoma.

On to `O=C(O)c1ccc(Oc2nccc(-c3c(-c4ccc(F)cc4)ncn3C3CCNCC3)n2)cc1`, for which the GI50 in the experiment on ACHN renal, with EKVX NSCLC, in the experiment on LOX IMVI melanoma, with RPMI-8226 leukemia, in the experiment with SF-268 CNS and in the experiment on SK-MEL-28 melanoma was above 25 µM each time. In addition, the GI50 in the experiment with SK-MEL-5 melanoma and with UACC-62 melanoma was above 25 µM throughout. In addition, the TGI in the experiment on ACHN renal, with EKVX NSCLC, in the experiment with LOX IMVI melanoma, in the experiment with RPMI-8226 leukemia, in the experiment on SF-268 CNS and in the experiment on SK-MEL-28 melanoma was above 25 µM in each case. Besides, the TGI in the experiment with SK-MEL-5 melanoma and in the experiment with UACC-62 melanoma was above 25 µM throughout.
